The target in the experiment is D(2) dopamine receptor (Homo sapiens) (UniProt P14416). Description: D2L dopamine receptor antagonism, confirmation, counter-screen for D4 antagonist project, cell-based, D2L isoform, human (AID 743377). To be noted: D2L-expressing cells, antagonist counterscreen, functional read-out.

SMILES strings stand for the structures. Active and inactive are the calls of the source. No rule for the calls is given here. A value given as a limit tells only on which side of the number the result lay.

Chain of D(2) dopamine receptor (Homo sapiens) (P14416 whole entry, looked up, canonical isoform): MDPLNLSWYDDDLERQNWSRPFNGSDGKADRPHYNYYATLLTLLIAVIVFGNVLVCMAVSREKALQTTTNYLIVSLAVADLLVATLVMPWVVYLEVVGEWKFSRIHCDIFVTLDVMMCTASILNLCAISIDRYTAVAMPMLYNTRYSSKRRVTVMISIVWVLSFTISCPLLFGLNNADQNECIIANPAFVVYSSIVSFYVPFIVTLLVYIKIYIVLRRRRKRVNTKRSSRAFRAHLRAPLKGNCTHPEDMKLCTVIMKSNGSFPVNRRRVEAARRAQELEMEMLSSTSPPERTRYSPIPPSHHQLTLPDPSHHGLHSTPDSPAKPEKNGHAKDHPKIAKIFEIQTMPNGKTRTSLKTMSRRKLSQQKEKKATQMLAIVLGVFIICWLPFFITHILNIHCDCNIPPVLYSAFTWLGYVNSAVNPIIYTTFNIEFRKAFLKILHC

The IC50 is the concentration needed to halve the response being measured. Take `Clc1ccc(CN2CCO[C@H](CCc3ccccc3)C2)cc1`: the IC50 is > 20 µM (inactive).

These data come from PubChem BioAssay AID743377 (Vanderbilt Specialized Chemistry Center, 2014).
